What was measured:
[1] = Physiologically based multi-compartment pharmacokinetic model; design: species or system mouse; settings: GN^WT mice, oral BRV
From the text: These quantitative measurements of drug and metabolite levels, collected over time, were used in various compartments, and in the presence and absence of microbial drug metabolism, to build the predictor module 130 which implements a physiologically based pharmacokinetic model to predict the levels and source of systemic drug and metabolite exposure over time, and quantify the contribution of host and microbiota to systemic drug and metabolite exposure. First, to parameterize processes independent from microbial BRV metabolism (grey compartments in FIG. 19A), a global optimization procedure was used to fit measured BRV and BVU kinetics in serum and intestinal compartments of GN^MUT mice. […]
Measured BRV and BVU kinetics in serum and intestinal compartments of GN^MUT mice were used to parameterize processes independent from bacterial BRV conversion (grey compartments as illustrated in FIG. 19A) using the global optimization procedure to best fit the measured data. […]
To parameterize processes dependent on microbial BRV metabolism (green compartments in FIG. 19A), including bacterial BRV to BVU conversion (kc^B) and BVU absorption rates from cecum and colon (KaLI1^M and kaLI2^M), measured BRV and BVU kinetics in cecum and colon (but not serum) of GN^WT mice, as illustrated in FIGS. 19C and 20A, are used. […]

[2] = type: in vivo, C57BL/6J mice
Protocol: Germfree mice were colonized with the wildtype and mutant strains. BRV was administered.
Individually caged GF C57BL/6J mice are colonized by oral gavage with 200 μL of an overnight GMM culture of either B. thetaiotaomicron wild type or bt4554 strains to generate GN^WT or GN^MUT mice, respectively. After 4 days, bacterial loads are determined by CFU plating on BHI blood agar prior to drug treatment.
(§1) Each drug treatment is performed using 20 treated and 5 to 6 untreated animals. Both genders are equally represented in each group and evenly distributed across the different time points for sample collection. Animals (n=5 per time point and group) are given 100 mg/kg body weight of BRV or SRV as suspensions in PBS (200 μL PBS for controls) by oral gavage. One blood sample is collected from each animal at an early time point (0.5, 1, 1.5, or 2 hours after drug administration) by submandibular bleeding. At 3, 5, 7, and 9 h, mice are sacrificed and tissue samples are collected into sample tubes and snap-frozen. Fecal samples are collected before euthanization and re-suspended in PBS (1 mL) through vigorous shaking. 20 μL are then plated on BHI blood plates and incubated aerobically and anaerobically at 37° C. to check GF, GN^WT, and GN^MUT animals for contamination. Monocolonized mice are also checked for contamination by PCR using primers 7 and 8.

[3] = Oral BRV in conventional (CV) and germfree (GF) mice, drug and metabolite levels; type: in vivo, C57BL/6 mice
Protocol: Oral BRV was administered to conventional (CV) and germfree (GF) C57BL/6 mice, and BRV and BVU concentrations were measured over time along the length of the gastrointestinal tract as shown in FIG. 4C. Serum kinetics of BRV and BVU in conventional (CV) and germ-free (GF) mice were compared following oral BRV administration.
All experiments using mice are performed using protocols approved by the Yale University Institutional Animal Care and Use Committee. Germfree (GF) 8 to 12 week old C57BL/6J mice are maintained in flexible plastic gnotobiotic isolators with a 12-hour light/dark cycle and GF status monitored by PCR and culture-based methods. Conventional C57BL/6J mice (Jackson Laboratories) are purchased at the age of 6-7 weeks and kept in the lab for 2-3 weeks before experiments. All mice are provided a standard, autoclaved mouse chow (5013 LabDiet, Purina) ad libitum.
as §1
200 μL of 0.1 mm zirconia/silica beads (BioSpec Products) and 500 μL of organic solvent (acetonitrile:methanol, 1:1) supplemented with internal standard are added to 50-350 mg of pre-weighed solid material. Material is homogenized by mechanical disruption with a bead beater (BioSpec Products) set for 2 minutes on high setting at room temperature. After incubation for at least 1 h at −20° C., samples are centrifuged (3220 rcf, −9° C.) for 15 min. 10 μL of supernatant are diluted with 10 μL H2O for analysis by LC-MS.
Samples for LS-MS analysis are prepared as described above. Chromatographic separation is performed on a C18 Kinetex Evo column (Phenomenex, 100 mm×2.1 mm, […]) using mobile phase A: H2O, 0.1% formic acid and B: methanol, 0.1% formic acid at 45° C. 5 μL of sample are injected at 100% A and 0.4 mL/min flow followed by a linear gradient to 95% B over 5.5 min and 0.4 mL/min flow leading to thymine, BVU, SRV, and BRV elution at 0.95, 2.0, 2.15, and 2.4 min, respectively. The internal standards caffeine and sulfamethoxazole elute at 1.9 and 2.1 min, respectively. The qTOF is operated in positive scanning mode (50-1000 m/z) and the following source parameters: VCap is 3500 V; nozzle voltage is 2000 V; gas temp is 225 C; drying gas 13 L/min; nebulizer is 20 psig; sheath gas temp is 225 C; and sheath gas flow is 12 L/min. Online mass calibration is performed using a second ionization source and a constant flow (5 μL/min) of reference solution (121.0509 and 922.0098 m/z). Compounds are identified based on the retention time of chemical standards and their accurate mass (tolerance 20 ppm).

## O=c1[nH]cc(/C=C/Br)c(=O)[nH]1 [BVU, bromovinyluracil]
[1]
  microbial share of total BVU exposure in serum (area under the curve): 77%
[2]; GN^WT compared to GN^MUT mice
  serum BVU levels: significantly higher
[2]; GN^WT mice
  absorption of BVU from cecum and colon: almost entirely absorbed
[2]; GN^WT mice after BRV administration
  BVU levels in the liver: increased BVU levels
[3]; CV compared to GF mice, oral BRV
  BVU concentrations in the liver: increased
[3]; CV mice compared to GF controls, oral BRV
  BVU intestinal concentrations: increased intestinal concentrations
[3]; CV versus GF mice, later timepoints after oral BRV
  concentrations of BVU in serum: significantly higher

Source: patent publication US20210183467A1, “SYSTEM AND METHOD FOR USING MICROBIOME TO DE-RISK DRUG DEVELOPMENT” (YALE UNIVERSITY, priority 2018, published 2021)
